Data from article PMC8003485, “Synthesis and Evaluation of Novel α-Aminoamides Containing Benzoheterocyclic Moiety for the Treatment of Pain” (Molecules, 2021).
Where two headings read alike, the source gives them in different places.

Experiments:
mouse [1] = test: Mouse hotplate assay; format: in vivo; details: even at a high dose of 100 mg/kg; data not shown
ICR (CD-1) male mice = test: Acetic acid-induced writhing test; format: in vivo; details: 10 mg/kg, i.p.; writhes in 20 min; mean ± SD, n = 6
Experimental: The writhing test was performed according to a previously reported method. The ICR (CD-1) male mice (weight: 22–25 g) were treated as for the formalin test in the same environment. The mice were divided into a vehicle group, a ralfinamide group, and test compound groups randomly, with six mice in each group. All compounds were dissolved in saline and administered by intraperitoneal injection at 10 mg/kg. The vehicle group was given the same volume of saline. After administration, the mice were placed into PVC chambers. Thirty minutes later, the mice were injected with 1% acetic acid solution at 10 mL/kg by intraperitoneal injection and placed into the observation chambers immediately to record the number of writhes each mouse had in 20 min. The results were presented as the mean ± standard deviation. The analytical method was the same as that for the formalin test, and the analgesic activity of each compound was calculated by the following formula. %Analgesia=Average Number (Vehicle)−Average Number (Drug)/Average Number (Vehicle)× 100%

hNav1.5 = molecular target: T1, hNav1.5 (Homo sapiens, UniProt Q14524); test: Assay for hNav1.5 inhibition (HEK293 cells stably expressing hNav1.5); format: cell-based
T1 construct: expressed in transfected cells; host or cells: HEK293
T1 sequence (Q14524 whole entry): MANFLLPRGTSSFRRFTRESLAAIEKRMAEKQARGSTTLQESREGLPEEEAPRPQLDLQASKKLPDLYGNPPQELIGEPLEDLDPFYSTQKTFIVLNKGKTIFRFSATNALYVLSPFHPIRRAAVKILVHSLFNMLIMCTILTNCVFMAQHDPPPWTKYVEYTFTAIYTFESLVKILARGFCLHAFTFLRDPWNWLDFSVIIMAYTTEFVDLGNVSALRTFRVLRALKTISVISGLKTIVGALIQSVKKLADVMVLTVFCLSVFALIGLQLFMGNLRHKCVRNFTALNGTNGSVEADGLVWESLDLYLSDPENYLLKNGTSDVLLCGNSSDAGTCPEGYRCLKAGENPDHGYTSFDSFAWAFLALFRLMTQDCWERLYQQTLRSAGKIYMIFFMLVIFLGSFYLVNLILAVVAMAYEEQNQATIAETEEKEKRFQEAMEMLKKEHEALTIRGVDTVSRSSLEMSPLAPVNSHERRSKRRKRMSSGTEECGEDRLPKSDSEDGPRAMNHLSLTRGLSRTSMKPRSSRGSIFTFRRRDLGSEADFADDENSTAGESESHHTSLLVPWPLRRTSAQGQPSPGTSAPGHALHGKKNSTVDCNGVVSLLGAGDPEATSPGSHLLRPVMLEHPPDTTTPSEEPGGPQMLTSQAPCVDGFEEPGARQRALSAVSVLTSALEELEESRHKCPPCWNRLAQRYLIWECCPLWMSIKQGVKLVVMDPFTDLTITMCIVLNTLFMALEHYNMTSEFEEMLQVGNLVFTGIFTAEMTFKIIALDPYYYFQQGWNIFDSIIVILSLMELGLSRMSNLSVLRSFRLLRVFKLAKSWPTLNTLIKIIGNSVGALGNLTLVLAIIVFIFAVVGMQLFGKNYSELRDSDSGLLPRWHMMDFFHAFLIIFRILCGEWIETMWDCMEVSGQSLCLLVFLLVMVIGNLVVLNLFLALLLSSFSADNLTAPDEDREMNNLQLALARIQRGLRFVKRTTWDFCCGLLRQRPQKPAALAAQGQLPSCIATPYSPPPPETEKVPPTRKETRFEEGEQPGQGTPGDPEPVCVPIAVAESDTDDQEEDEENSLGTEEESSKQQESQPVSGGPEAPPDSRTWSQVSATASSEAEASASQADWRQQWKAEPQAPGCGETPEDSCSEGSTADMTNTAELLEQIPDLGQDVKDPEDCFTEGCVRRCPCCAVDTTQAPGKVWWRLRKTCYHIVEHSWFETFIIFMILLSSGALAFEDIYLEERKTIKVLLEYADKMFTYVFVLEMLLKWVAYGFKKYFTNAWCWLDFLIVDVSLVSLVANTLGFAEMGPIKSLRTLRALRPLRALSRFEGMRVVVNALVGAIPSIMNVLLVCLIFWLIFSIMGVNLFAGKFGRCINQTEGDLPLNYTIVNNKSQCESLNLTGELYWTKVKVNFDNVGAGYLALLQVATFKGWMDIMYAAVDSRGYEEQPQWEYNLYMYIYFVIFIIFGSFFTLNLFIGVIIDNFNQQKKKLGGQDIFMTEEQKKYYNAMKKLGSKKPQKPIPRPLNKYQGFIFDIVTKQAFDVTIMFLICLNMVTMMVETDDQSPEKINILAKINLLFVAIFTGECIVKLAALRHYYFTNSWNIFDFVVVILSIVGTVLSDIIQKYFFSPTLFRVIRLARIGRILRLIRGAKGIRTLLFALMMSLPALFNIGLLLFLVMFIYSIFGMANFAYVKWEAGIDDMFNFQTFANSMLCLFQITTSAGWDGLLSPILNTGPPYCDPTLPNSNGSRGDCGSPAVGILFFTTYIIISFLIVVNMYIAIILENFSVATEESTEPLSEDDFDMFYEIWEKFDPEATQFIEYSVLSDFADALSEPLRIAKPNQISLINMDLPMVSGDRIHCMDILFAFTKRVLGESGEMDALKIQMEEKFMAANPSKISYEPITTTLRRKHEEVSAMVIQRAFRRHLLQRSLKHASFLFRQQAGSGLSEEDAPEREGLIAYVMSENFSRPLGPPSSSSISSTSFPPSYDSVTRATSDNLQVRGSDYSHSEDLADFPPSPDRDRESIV
Experimental: The inhibition of the compounds to hNav1.5 peak current was performed at room temperature using HEK293 cells that could express hNav1.5 stably. The holding voltage of the membrane was transferred to 0 mV from −120 mV for 50 ms and then restored to −50 mV for 8 s. After that, the membrane potential was renewed to −120 mV for 20 ms, followed by a depolarization to 0 mV for 50 ms. At last, the potential was recovered to the holding voltage −120 mV for 30 ms. This progress was performed every 20 s. The compounds were administrated when the voltage of hNav1.5 was stable. Every concentration was tested for 5 min and all compounds were tested at several concentrations and with multiple cells.

hNav1.8 = molecular target: T2, hNav1.8 (Homo sapiens, UniProt Q9Y5Y9); test: Whole-cell patch clamp assay for hNav1.8 inhibition (CHO cells stably expressing hNav1.8); format: cell-based
T2 construct: expressed in transfected cells; host or cells: CHO
Experimental: The whole-cell patch clamp assay assessing the hNav1.8 current was carried out at room temperature with Chinese hamster ovary cells stably expressing hNav1.8. The holding voltage of the membrane was transferred to 0 mV from −120 mV for 50 ms and then restored to −50 mV for 8 s. After that, the membrane potential was renewed to −120 mV for 20 ms, which was followed by a depolarization to 0 mV for 50 ms. Finally, the potential was recovered to the holding voltage of −120 mV for 30 ms. This process was performed every 20 s. The compounds were administered when the voltage of hNav1.8 was stable. Every compound concentration was tested for 5 min, and all compounds were tested at several concentrations and with multiple cells.

mouse [2] = test: Mouse tail flick assay; format: in vivo; details: even at a high dose of 100 mg/kg; data not shown
ICR (CD−1) male mice [3] = test: Formalin test (mouse, phase II paw licking); format: in vivo
Experimental: The formalin test was carried out using the method described previously. During the formalin test, Institute of Cancer Research (ICR; CD−1) male mice (weight: 22–25 g) were acclimated to the environment for two days before the experiment with food and water available freely. The mice were housed under a 12 h/12 h light/dark cycle. The temperature and humidity of the room were kept at 25 ± 2 °C and 50–60%, respectively. The mice were divided into a vehicle group, a ralfinamide group, and test compound groups randomly, with eight mice in each group. All compounds were dissolved in saline and administered by intraperitoneal injection (n = 8) or intragastric administration by mouth (n = 8) at 10 mg/kg. The vehicle group was given the same volume of saline.
After administration, the mice were placed into polyvinyl chloride (PVC) observation chambers. Thirty minutes later, the mice were injected subcutaneously with 20 μL of 2.7% formalin solution into the surface of their right hind paw and were returned to their PVC chambers immediately to observe their behavior. The cumulative time each mouse licked its right hind paw during phase II (15–30 min) was recorded as its painful time in phase II. The analgesic effects of the compounds were presented as the mean ± standard deviation. The data were analyzed by SPSS using one-way analysis of variance followed by Dunnett’s test. The analgesic activity of the test compounds was calculated according to the following formula. %Analgesia=Average Time (Vehicle)−Average Time (Drug)/Average Time (Vehicle)× 100%

hNav1.7 = molecular target: T3, hNav1.7 (Homo sapiens, UniProt Q15858); test: Whole-cell patch clamp assay for hNav1.7 inhibition (HEK293 cells stably expressing hNav1.7); format: cell-based; details: for inhibition at 10 µM: HEK293, TTX-sensitive Nav1.7 current, mean ± SD
T3 construct: expressed in transfected cells; host or cells: HEK293
T3 sequence (Q15858 whole entry): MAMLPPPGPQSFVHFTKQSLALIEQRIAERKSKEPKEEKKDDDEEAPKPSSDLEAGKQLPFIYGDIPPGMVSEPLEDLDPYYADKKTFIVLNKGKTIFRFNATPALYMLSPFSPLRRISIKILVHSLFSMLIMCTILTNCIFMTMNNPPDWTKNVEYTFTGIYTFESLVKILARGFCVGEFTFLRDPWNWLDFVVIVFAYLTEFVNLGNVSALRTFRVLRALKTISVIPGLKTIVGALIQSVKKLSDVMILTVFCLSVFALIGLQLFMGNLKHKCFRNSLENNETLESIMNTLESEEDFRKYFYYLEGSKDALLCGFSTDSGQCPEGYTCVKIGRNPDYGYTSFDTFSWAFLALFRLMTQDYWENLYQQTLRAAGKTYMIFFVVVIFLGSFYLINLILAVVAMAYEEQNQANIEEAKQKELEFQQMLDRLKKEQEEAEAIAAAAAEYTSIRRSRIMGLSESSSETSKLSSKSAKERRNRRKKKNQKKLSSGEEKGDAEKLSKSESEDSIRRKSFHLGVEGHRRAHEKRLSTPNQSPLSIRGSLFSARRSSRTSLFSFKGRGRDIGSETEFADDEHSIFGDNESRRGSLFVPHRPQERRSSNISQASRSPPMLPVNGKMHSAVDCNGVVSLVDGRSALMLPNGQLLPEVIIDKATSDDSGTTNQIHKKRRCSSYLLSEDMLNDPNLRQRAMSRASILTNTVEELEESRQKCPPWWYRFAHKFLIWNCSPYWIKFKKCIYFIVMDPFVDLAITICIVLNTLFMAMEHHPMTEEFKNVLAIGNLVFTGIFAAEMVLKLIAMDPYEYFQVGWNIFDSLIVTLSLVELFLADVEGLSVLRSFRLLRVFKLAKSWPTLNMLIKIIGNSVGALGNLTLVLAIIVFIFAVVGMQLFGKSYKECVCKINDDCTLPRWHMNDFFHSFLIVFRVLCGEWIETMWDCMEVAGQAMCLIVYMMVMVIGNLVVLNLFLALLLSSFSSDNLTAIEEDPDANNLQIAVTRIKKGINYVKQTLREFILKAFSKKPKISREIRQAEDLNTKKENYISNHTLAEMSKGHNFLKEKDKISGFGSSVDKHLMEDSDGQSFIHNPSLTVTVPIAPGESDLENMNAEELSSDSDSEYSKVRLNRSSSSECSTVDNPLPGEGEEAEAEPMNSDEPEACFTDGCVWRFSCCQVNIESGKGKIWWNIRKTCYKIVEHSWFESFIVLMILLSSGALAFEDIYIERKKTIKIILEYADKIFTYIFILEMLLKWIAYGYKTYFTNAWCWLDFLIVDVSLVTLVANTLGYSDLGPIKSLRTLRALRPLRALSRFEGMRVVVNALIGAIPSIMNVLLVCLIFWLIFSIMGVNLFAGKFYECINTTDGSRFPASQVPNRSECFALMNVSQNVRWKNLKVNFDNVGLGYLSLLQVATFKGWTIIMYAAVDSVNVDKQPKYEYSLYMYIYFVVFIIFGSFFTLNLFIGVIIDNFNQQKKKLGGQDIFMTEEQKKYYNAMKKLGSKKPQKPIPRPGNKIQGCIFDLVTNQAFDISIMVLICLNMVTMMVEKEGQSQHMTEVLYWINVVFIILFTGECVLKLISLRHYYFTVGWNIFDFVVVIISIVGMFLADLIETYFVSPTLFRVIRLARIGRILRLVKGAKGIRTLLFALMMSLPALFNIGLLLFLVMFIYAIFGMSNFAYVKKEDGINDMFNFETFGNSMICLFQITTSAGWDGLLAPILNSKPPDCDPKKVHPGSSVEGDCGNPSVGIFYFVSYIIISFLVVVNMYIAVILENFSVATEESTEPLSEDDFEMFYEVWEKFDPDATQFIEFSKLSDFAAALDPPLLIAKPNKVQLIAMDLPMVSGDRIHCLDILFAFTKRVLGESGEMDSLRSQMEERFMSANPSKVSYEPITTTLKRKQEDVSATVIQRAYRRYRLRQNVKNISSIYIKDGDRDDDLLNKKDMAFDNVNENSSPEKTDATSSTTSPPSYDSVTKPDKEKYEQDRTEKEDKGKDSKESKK
Experimental: The compounds were tested as hNav1.7 peak current inhibitors at room temperature using human embryonic kidney 293 cells stably expressing hNav1.7. The holding voltage was depolarized to 0 mV from −120 mV for 20 ms and restored to −75 mV for 8 s. After that, the membrane potential was recovered to −120 mV for 20 ms and then depolarized to 0 mV for another 20 ms. Finally, the voltage was renewed to −120 mV for 30 ms. The potential was applied every 20 s. The compounds were administered when the voltage of hNav1.7 recorded by the whole-cell patch clamp was stable. Every compound concentration was tested for 5 min, and all compounds were tested at several concentrations and with multiple cells.

ICR (CD−1) male mice [4] = test: Formalin test (mouse, phase II paw licking); format: in vivo; remark: listed apart in the source

- IC50 (hNav1.8; Nav1.8 inactivated state Na+ currents): 4.3 ± 0.5 µM
- Potency against Nav1.8 compared to ralfinamide (in words) (hNav1.8; ratio of IC50 values, Table 5): nearly nine-fold more potent
- inhibition at 10 µM (hNav1.7; read-out: Inhibitory Effect against Nav1.7, Activated State (TP−1)): 15.6 ± 0.8%
- inhibition at 10 µM (hNav1.7; read-out: Inhibitory Effect against Nav1.7, Inactivated State (TP−2)): 61.8 ± 0.2%
- IC50 (hNav1.7; Table 4, TTX-sensitive inactivated Nav1.7 current): 2.3 ± 0.2 µM
- Nav1.7 IC50 compared to ralfinamide (in words) (hNav1.7; ratio of IC50 values, Table 4): three times lower
SMILES: C[C@H](NCc1cccc(COc2cccc3occc23)c1)C(N)=O [Compound 6a, (S)-2-((3-((Benzofuran-4-yloxy)methyl)benzyl)amino)propanamide]
- Analgesic effect in mouse hotplate assay (in words) (mouse [1]): no analgesic effect
- % Analgesia (acetic acid-induced writhing test) (ICR (CD-1) male mice): 49.7 ± 11.3 ^☆ %
- inhibition at 10 µM (hNav1.5; HEK293, 10 µM, read-out: Inhibitory Effect to Nav1.5): 66.8 ± 1.5%
- Inhibitory activity against Nav1.5 (in words) (hNav1.5; similarly to ralfinamide, low selectivity over the cardiac sodium channel): moderate inhibitory activity
- Analgesic effect in tail flick assay (in words) (mouse [2]): no analgesic effect
- % Analgesia (formalin test) (ICR (CD−1) male mice [3]; 10 mg/kg, i.p., phase II (15–30 min), mean ± SD, n = 8): 84.0 ± 16.2 ^☆ * %
- inhibition in vivo at 10 mg/kg (ICR (CD−1) male mice [3]; Mus musculus, ip, 10 mg/kg, i.p., phase II (15–30 min), mean ± SD, n = 8, read-out: % Analgesia (formalin test)): 84%
- Percentage of analgesia relative to ralfinamide (times higher) (ICR (CD−1) male mice [3]; formalin test, 10 mg/kg): 1.5–2 times
- Analgesic activity after intragastric administration by mouth (in words) (ICR (CD−1) male mice [3]; formalin test, oral administration assay, compared to ralfinamide): higher analgesic activity than ralfinamide
- Analgesic response (formalin test) (ICR (CD−1) male mice [4]; 5 mg/kg, intraperitoneal injection, dose-effect relationship assay): 69.6%
- Dose dependence of analgesic activity (in words) (ICR (CD−1) male mice [4]; formalin test, 2.5 mg/kg, 5 mg/kg and 10 mg/kg by intraperitoneal injection): dose-dependent activity
